Reference: ChEMBL document CHEMBL3639084, “Heterocyclic analogs of propargyl-linked inhibitors of dihydrofolate reductase” (2014)

Target: T1, Dihydrofolate reductase (Homo sapiens, UniProt P00374)
T1 sequence (P00374 whole entry): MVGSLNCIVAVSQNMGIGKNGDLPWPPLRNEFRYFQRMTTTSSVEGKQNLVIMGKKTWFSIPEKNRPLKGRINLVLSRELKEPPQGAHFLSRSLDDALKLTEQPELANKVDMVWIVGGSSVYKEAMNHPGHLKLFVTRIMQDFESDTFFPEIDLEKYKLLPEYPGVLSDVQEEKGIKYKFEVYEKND
Test: Spectrophotometric Enzyme Assay: Compounds were evaluated in spectrophotometric enzyme assays using ChDHFR-TS and hDHFR. Inhibition constants (IC50) were measured (see Table 4). The lead compound, X, has an inhibition constant of 38 nM and modest selectivity (8-fold).

## COc1cc(-c2ccccc2C)ccc1C(C)C#Cc1c(C)nc(N)nc1N (stereo unspecified)
  IC50: 2770 nM
